Assay results from patent publication US7408065B2, “P2X7 receptor antagonists and their use” (AstraZeneca AB, priority 2003, dated 2008).
Structures can show the parent of a compound that is named as a salt. Where two headings read alike, the source gives them in different places.

What was measured:
P2X7 receptor = molecular target: T1, P2X7 receptor (Homo sapiens, UniProt Q99572); experiment: P2X7 receptor antagonist activity: bbATP-induced ethidium bromide fluorescence in THP-1 cells; type: cell-based
T1 construct: 200 μl of a suspension of THP-1 cells; endogenous in cells; host or cells: THP-1 cells
T1 sequence (Q99572 1-595): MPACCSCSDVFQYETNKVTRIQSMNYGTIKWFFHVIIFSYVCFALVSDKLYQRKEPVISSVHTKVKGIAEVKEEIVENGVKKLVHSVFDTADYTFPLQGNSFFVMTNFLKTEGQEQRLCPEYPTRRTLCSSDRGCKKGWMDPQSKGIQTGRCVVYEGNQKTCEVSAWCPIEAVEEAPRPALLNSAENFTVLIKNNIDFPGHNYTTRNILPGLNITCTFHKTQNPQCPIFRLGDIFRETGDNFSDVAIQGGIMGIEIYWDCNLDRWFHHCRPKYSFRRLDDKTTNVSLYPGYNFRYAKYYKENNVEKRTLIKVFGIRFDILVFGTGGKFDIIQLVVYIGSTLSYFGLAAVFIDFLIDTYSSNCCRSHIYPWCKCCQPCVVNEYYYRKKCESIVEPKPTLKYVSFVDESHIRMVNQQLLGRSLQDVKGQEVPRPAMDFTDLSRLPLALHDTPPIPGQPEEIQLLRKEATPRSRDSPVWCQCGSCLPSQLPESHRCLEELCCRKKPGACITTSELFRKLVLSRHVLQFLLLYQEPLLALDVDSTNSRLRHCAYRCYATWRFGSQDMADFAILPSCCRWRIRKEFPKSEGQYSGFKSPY
Protocol: Consequently, when the receptor is activated using bbATP in the presence of ethidium bromide (a fluorescent DNA probe), an increase in the fluorescence of intracellular DNA-bound ethidium bromide is observed. The increase in fluorescence can be used as a measure of P2X7 receptor activation and therefore to quantify the effect of a compound on the P2X7 receptor.
In this manner, each of the title compounds of the Examples was tested for antagonist activity at the P2X7 receptor. Thus, the test was performed in 96-well flat bottomed microtitre plates, the wells being filled with 250 μl of test solution comprising 200 μl of a suspension of THP-1 cells (2.5×10^6 cells/ml) containing 10^−4M ethidium bromide, 25 μl of a high potassium buffer solution containing 10^−5M bbATP, and 25 μl of the high potassium buffer solution containing 3×10^−5M test compound. The plate was covered with a plastics sheet and incubated at 37° C. for one hour. […] For the purposes of comparison, bbATP (a P2X7 receptor agonist) and pyridoxal 5-phosphate (a P2X7 receptor antagonist) were used separately in the test as controls.

[1] = THP-1 cells, negative logarithm of concentration reducing bbATP agonist activity by 50%, ethidium bromide fluorescence, 37° C., one hour, read-out: pIC50 (converted)

SMILES | melting point [°C] | IC50 (P2X7 receptor; [1]) [µM] | IC50 (P2X7 receptor) [µM]
O=C(CC1CCCCC1)Nc1c(Cl)ccc2nc(N3CCC(c4noc(=O)[nH]4)CC3)ccc12 [Example 102, N-[6-Chloro-2-[4-(4,5-dihydro-5-oxo-1,2,4-oxadiazol-3-yl)-1-piperidinyl]-5-quinolinyl]-cyclohexaneacetamide] | 233 to 235 | 0.2 | 
CS(=O)(=O)NC(=O)NCCCc1ccc2c(NC(=O)CC3CCCCC3)c(Cl)ccc2n1 [Example 24, N-[6-Chloro-2-[3-[[[(methylsulfonyl)amino]carbonyl]amino]propyl]-5-quinolinyl]-cyclohexaneacetamide] | 151 to 152 |  | 0.501
O=C(O)CN1CCN(c2ccc3c(C(=O)NCC4CCCCC4)c(Cl)ccc3n2)CC1 [Example 73, 4-[6-Chloro-5-[[(cyclohexylmethyl)amino]carbonyl]-2-quinolinyl]-1-piperazineacetic acid, Acetate] |  | 0.398 | 
O=C(NCC1CCCCC1)c1c(Cl)ccc2ncccc12 [Example 42, 6-Chloro-N-(cyclohexylmethyl)quinoline-5-carboxamide] |  | 0.316 | 
O=C(CC1CCCCC1)Nc1c(Cl)ccc2nc(NCCCO)ccc12 [Example 5, N-[6-Chloro-2-[(3-hydroxypropyl)amino]-5-quinolinyl]-cyclohexaneacetamide, Hydrochloride] |  | 0.126 | 
CC1CCC(CC(=O)Nc2cccc3ncccc23)CC1 (stereo not shown) [Example 20, 4-Methyl-N-5-quinolinyl-cyclohexaneacetamide] |  | 0.126 | 
O=C1CN([C@H]2CCN(c3ccc4c(C(=O)NCC5CCCCC5)c(Cl)ccc4n3)C2)S(=O)(=O)N1 [Example 112, 6-Chloro-N-(cyclohexylmethyl)-2-[(3S)-3-(1,1-dioxido-4-oxo-1,2,5-thiadiazolidin-2-yl)-1-pyrrolidinyl]-5-quinolinecarboxamide] |  | 0.316 | 
CN[C@@H]1CCN(c2ccc3c(NC(=O)CC4CCCCC4)c(Cl)ccc3n2)C1 [Example 33, N-[6-Chloro-2-[(3R)-3-(methylamino)-1-pyrrolidinyl]-5-quinolinyl]-cyclohexaneacetamide] | 169 | 0.0251 | 
O=C(CC1CCCCC1)Nc1c(Cl)ccc2nc(N3CCC[C@@H](O)C3)ccc12 [Example 37, N-[6-Chloro-2-[(3R)-3-hydroxy-1-piperidinyl]-5-quinolinyl]-cyclohexaneacetamide] | 209 to 214 | 0.0501 | 
CNC1CCCN(c2ccc3c(NC(=O)CC4CCCCC4)c(Cl)ccc3n2)C1 (stereo not shown) [Example 82, N-[6-Chloro-2-[3-(methylamino)-1-piperidinyl]-5-quinolinyl]-cyclohexaneacetamide] | 158 to 159 |  | 
Cc1ccc2nc(N3CC[C@H](NCCO)C3)ccc2c1NC(=O)CC1CCCCC1 [Example 86, N-[2-[(3S)-3-[(2-Hydroxyethyl)amino]-1-pyrrolidinyl]-6-methyl-5-quinolinyl]-cyclohexaneacetamide] | 204 to 207 |  | 
O=C(CC1CCCCC1)Nc1cccc2ncccc12 [Example 18, N-5-Quinolinyl-cyclohexaneacetamide] | 183 to 184 |  | 
O=C(O)CN[C@H]1CCN(c2ccc3c(NC(=O)CC4CCCCC4)c(Cl)ccc3n2)C1 [Example 85, N-[(3S)-1-[6-Chloro-5-[(cyclohexylacetyl)amino]-2-quinolinyl]-3-pyrrolidinyl]-glycine] | 257 to 259 |  | 
CNCCCN(C)c1ccc2c(NC(=O)C3(C4CCCCC4)CC3)c(Cl)ccc2n1 (as salt: hydrochloride) | 215 to 218 |  | 
CNCC1CCCN1c1ccc2c(NC(=O)CC3CCCCC3)c(Cl)ccc2n1 (stereo not shown) [Example 83, N-[6-Chloro-2-[2-[(methylamino)methyl]-1-pyrrolidinyl]-5-quinolinyl]-cyclohexaneacetamide] | 138 to 145 |  | 
NC1CCN(c2ccc3c(NC(=O)CC4CCCCC4)c(Cl)ccc3n2)CC1 [Example 32, N-[2-(4-Amino-1-piperidinyl)-6-chloro-5-quinolinyl]-cyclohexaneacetamide] | 333 to 334 |  | 
O=C(NCC1CCCCC1)c1c(Cl)ccc2nc(N3CCC[C@H]3C(=O)O)ccc12 (as salt: trifluoroacetate) | 168 to 170 |  | 

SMILES | melting point [°C] | IC50 (P2X7 receptor; [1]) [µM] | IC50 (P2X7 receptor) [µM]
O=C(CC1CCCCC1)Nc1c(Cl)ccc2nc(N3CCCC(NCCO)C3)ccc12 (stereo not shown) [Example 80, N-[6-Chloro-2-[3-[(2-hydroxyethyl)amino]-1-piperidinyl]-5-quinolinyl]-cyclohexaneacetamide] | 185 to 186 |  | 
O=C(NCC1CCCCC1)c1c(Cl)ccc2nc(N3CCC(c4nnn[nH]4)CC3)ccc12 [Example 110, 6-Chloro-N-(cyclohexylmethyl)-2-[4-(1H-tetrazol-5-yl)-1-piperidinyl]-5-quinolinecarboxamide] | 255 to 257 |  | 
O=C(NCC1CCCCC1)c1c(Cl)ccc2nc(N3CC[C@H](NCCO)C3)ccc12 (as salt: hydrochloride) [Example 50, 6-Chloro-N-(cyclohexylmethyl)-2-[(3S)-3-[(2-hydroxyethyl)amino]-1-pyrrolidinyl]-5-quinolinecarboxamide, Hydrochloride] | 211 to 220 |  | 
N[C@H]1CCN(c2ccc3c(C(=O)NCC4CCCCC4)cccc3n2)C1 [Example 54, 2-[(3S)-3-Amino-1-pyrrolidinyl]-N-(cyclohexylmethyl)-5-quinolinecarboxamide] | 127 to 128 |  | 
O=C(Nc1c(Cl)ccc2nc(N3CCNCC3)ccc12)C1(C2CCCCC2)CC1 [Example 27, N-[6-Chloro-2-(1-piperazinyl)-5-quinolinyl]-1-cyclohexyl-cyclopropanecarboxamide] | 219 |  | 
O=C(CC1CCCCC1)Nc1c(Cl)ccc2nc(N3CCCNCC3)ccc12 [Example 10, N-[6-Chlor-2-(hexahydro-1H-1,4-diazepin-1-yl)-5-quinolinyl]-cyclohexaneacetamide] | 186 to 188 |  | 
O=C(CC1CCC(C(F)(F)F)CC1)Nc1c(Cl)ccc2nc(N3CCNCC3)ccc12 (stereo not shown) [Example 9, N-[6-Chloro-2-(1-piperazinyl)-5-quinolinyl]-4-(trifluoromethyl)-cyclohexaneacetamide] | 186 to 190 |  | 
C[C@@H]1CN(c2ccc3c(NC(=O)CC4CCCCC4)c(Cl)ccc3n2)C[C@H](C)N1 [Example 11] | 250 to 252 |  | 
O=C(NCC1CCCCC1)c1c(Cl)ccc2nc(N3CCC(C(=O)O)CC3)ccc12 (as salt: sodium) [Example 74, 1-[6-Chloro-5-[[(cyclohexylmethyl)amino]carbonyl]-2-quinolinyl]-4-piperidinecarboxylic Acid, Sodium Salt] | 320 to 324 |  | 
O=C(CC1CCCCC1)Nc1c(Cl)ccc2nc(N3CCNCC3)ccc12 (as salt: hydrochloride) | > 250 |  | 
O=C(CC1CCCCC1)Nc1c(Cl)ccc2nc(NCCNCCO)ccc12 [Example 17, N-[6-Chloro-2-[[2-[(2-hydroxyethyl)amino]ethyl]amino]-5-quinolinyl]-cyclohexaneacetamide, Dihydrochloride] |  | 0.0251 | 
O=C(O)CCCCc1ccc2c(NC(=O)CC3CCCCC3)c(Cl)ccc2n1 [Example 70, 6-Chloro-5-[(cyclohexylacetyl)amino]-2-quinolinepentanoic Acid] | 199 to 201 |  | 
O=C(CC1CCCCC1)Nc1c(Cl)ccc2nc(N3CCC(n4cn[nH]c4=O)CC3)ccc12 [Example 64, N-[6-Chloro-2-[4-(1,5-dihydro-5-oxo-4H-1,2,4-triazol-4-yl)-1-piperidinyl]-5-quinolinyl]-cyclohexaneacetamide] | 310 to 313 |  | 
N[C@H]1CCCN(c2ccc3c(NC(=O)CC4CCCCC4)c(Cl)ccc3n2)C1 [Example 60, N-[2-[(3S)-3-Amino-1-piperidinyl]-6-chloro-5-quinolinyl]-cyclohexaneacetamide] | 173 to 176 |  | 
O=C(CC1CCCCC1)Nc1c(Cl)ccc2nc(N3CCCC3CNCCO)ccc12 (stereo not shown) [Example 81, N-[6-Chloro-2-[2-[[(2-hydroxyethyl)amino]methyl]-1-pyrrolidinyl]-5-quinolinyl]-cyclohexaneacetamide] | 157 to 158 |  | 
O=C(NCC1CCCCC1)c1c(Cl)ccc2nc(CCCCc3nnn[nH]3)ccc12 [Example 106, 6-Chloro-N-(cyclohexylmethyl)-2-[4-(1H-tetrazol-5-yl)butyl]-5-quinolinecarboxamide] | 90 to 93 |  | 
